Data published in patent US20230381142A1, “ANTILEISHMANIAL COMPOUNDS, COMPOSITIONS AND USE THEREOF” (TRUSTEES OF BOSTON UNIVERSITY, priority 2022, published 2023).
Like-named read-outs stand apart in the source and are kept apart here.

Experiments:
[1] = test system: L. donovani intracellular amastigotes infecting THP-1 macrophages; experiment: GSK intramacrophage L. donovani assay (LD AMMAC, inMac; Assay Conditions C); type: cell-based; details: Leishmania donovani
Protocol: Assay Conditions C: The intramacrophage Leishmania donovani activity assay was performed as described in Antimicrob Agents Chemother (2013) 57(7):2913-22.
(§1) The intramacrophage Leishmania donovani activity assay (LD AMMAC) at GlaxoSmithKline was performed as described.
(§2) Given the literature precedents described above and the apparent narrow tolerance for R^3 substitutions observed in the primary screen compounds, a thorough and methodical assessment was undertaken of tolerated groups at the three points of diversity (R^1/R^2/R^3) for the core. At this stage of the project, all analogues were assessed using a battery of assays performed in-house at GlaxoSmithKline. For antileishmanial activity, GSK's inMac assay was utilized. This assay provides two readouts of compound potency: average number of intracellular amastigotes per infected cell (AMMAC) EC50, percentage of infected cells per well (INFCELL) EC50, as well as a toxicity output derived from the number of host cells (MAC EC50). In addition, compounds were assessed for toxicity against HepG2 cells (HEPG2 EC50). Here, AMMAC EC50 values were focused on for relative potency assessments. […] It should be noted that for all compounds assessed in this project, the measured toxicity against THP-1 macrophages either equaled or exceeded that of HepG2 hepatocytes, therefore the MAC SI is used here as the more conservative estimate of therapeutic index.

[2] = GSK inMac assay, host cell toxicity readout (LD MAC); type: cell-based, human; details: human
Protocol: as §1, §2

[3] = THP-1 cells, values marked c, read-out: L. donovani amastigotes EC50 (THP-1 cells)
[4] = footnote c, read-out: THP-1 Host Cell CC50
[5] = values marked c: THP-1 cells, read-out: L. donovani amastigotes EC50 (μM, THP-1 or B10R cells)

SMILES	EC50 [1, 3]	EC50 [1, 5]	CC50 [2, 4]	CC50 ([2]; host THP-1 cells)
COc1ccc(N2C(=O)c3[nH]nc(CC(C)C)c3C2c2ccc(C(F)(F)F)cc2)cc1 (centres unmarked) [CMLD011121]	8 µM		15.9 µM	
COCn1nc2c(c1CC(C)C)C(c1ccc(F)cc1)N(c1ccc(OC)cc1)C2=O (centres unmarked) [BUCMD00814]	12.6 µM		> 50 µM	
CC(C)Cc1n[nH]c2c1C(c1ccc(F)cc1)N(c1ccc(S(=O)(=O)N3CCCC3)cc1)C2=O (centres unmarked) [CMLD011558]	> 100 µM		20 µM	
COc1ccc(N2C(=O)c3[nH]nc(CC(C)C)c3C2c2cnccc2OC)cc1 (centres unmarked) [CMLD011577]	10 µM		20 µM	
COc1ccc(N2C(=O)c3[nH]nc(CC(C)C)c3C2C2CCCC2)cc1 (centres unmarked) [CMLD010978]	12.6 µM		20 µM	
COc1ccccc1N1C(=O)c2[nH]nc(CC(C)C)c2C1c1cccc(C(F)(F)F)c1 (centres unmarked) [CMLD011141]	7.9 µM		20 µM	
COc1cc(N2C(=O)c3[nH]nc(CC(C)C)c3C2c2ccccc2Br)cc(OC)c1OC (centres unmarked) [CMLD011077]		6.3 µM		6.3 µM
COc1cncc(N2C(=O)c3[nH]nc(CC(C)C)c3C2c2ccc(F)cc2)c1 (centres unmarked) [CMLD010883]	31.6 µM		> 50 µM	
CC(C)Cc1n[nH]c2c1[C@@H](c1ccc(F)cc1)N([C@H]1CC[C@H](N(C)C)CC1)C2=O [CMLD011124]	25.1 µM		> 50 µM	
COc1ccc(N2C(=O)c3[nH]nc(CC(C)C)c3C2c2ccc(F)c(C)n2)cc1 (centres unmarked) [CMLD011120]	12.6 µM		> 50 µM	
CC(C)Cc1n[nH]c2c1C(c1cccc(C(F)(F)F)c1)N(c1ccc(-n3ccnc3)cc1)C2=O (centres unmarked) [CMLD010924]		≥ 50.1 µM		39.8 µM
COc1ccc(N2C(=O)c3[nH]nc(CC(C)C)c3C2c2ccc(C(=O)O)cc2)cc1 (centres unmarked) [CMLD011032]	> 50 µM		> 50 µM	
CC(C)Cc1nn(-c2ccc(OC(F)(F)F)cc2)c2c1C(c1ccccc1)NC2=O (centres unmarked) [CMLD009657]		12.6 µM		≥ 50.1 µM
CC(C)Cc1n[nH]c2c1C(c1ccc(F)cc1)N(CC1CCN(C)C1)C2=O (centres unmarked) [CMLD011129]	> 50 µM		> 50 µM	
COc1ccc(N2C(=O)c3[nH]nc(CC(C)C)c3C2C2CCCCC2)cn1 (centres unmarked) [CMLD010903]	20 µM		31.6 µM	
COc1ccc(N2C(=O)c3[nH]nc(CC(C)C)c3C2c2nccs2)cc1 (centres unmarked) [CMLD011075]	20 µM		> 50 µM	
COc1ccc(N2C(=O)c3[nH]nc(CC(C)C)c3[C@H]2c2cccc(C(F)(F)F)c2)cn1 [CMLD011076]		10 µM		15.8 µM
COc1ccccc1N1C(=O)c2[nH]nc(CC(C)C)c2C1c1cccc(Cl)c1 (centres unmarked) [CMLD011134]	7.9 µM		15.8 µM	
CC(C)Cc1n[nH]c2c1C(c1c(Cl)cccc1Cl)N(c1ccc(Br)cc1)C2=O (centres unmarked) [CMLD011550]	7.9 µM		20 µM	
CC(C)Cc1n[nH]c2c1C(c1ccc(F)cc1)N(CC(C)(CO)CO)C2=O (centres unmarked) [CMLD011038]		≥ 50.1 µM		≥ 50.1 µM
COc1ccc(N2C(=O)c3[nH]nc(-c4ccc(Cl)cc4Cl)c3C2c2ccc(F)cc2)cc1 (centres unmarked) [CMLD011093]	20 µM		> 50 µM	

SMILES	EC50 [1, 3]	EC50 [1, 5]	CC50 [2, 4]	CC50 ([2]; host THP-1 cells)
CC(C)Cc1n[nH]c2c1C(c1cccc(C(F)(F)F)c1)N(c1ccc(C(C)(C)C)cc1)C2=O (centres unmarked) [CMLD011122]	6.3 µM		10 µM	
COCCN1C(=O)c2[nH]nc(CC(C)C)c2C1c1ccc(F)cc1 (centres unmarked) [CMLD011117]	> 50 µM		> 50 µM	
COc1ccc(N2C(=O)c3nn(C)c(CC(C)C)c3C2c2ccc(F)cc2)cc1 (centres unmarked) [CMLD010988]		7.9 µM		25.1 µM
COc1ccccc1N1C(=O)c2[nH]nc(CC(C)C)c2C1c1ccccc1Cl (centres unmarked) [CMLD011130]	15.8 µM		25.1 µM	
CC(C)Cc1n[nH]c2c1C(c1ccc(F)cc1)N(Cc1ccc(C(F)(F)F)cn1)C2=O (centres unmarked) [CMLD010848]	39.8 µM		> 50 µM	
COc1ccc(N2C(=O)c3[nH]nc(CC(C)C)c3C2c2cccc(C(F)(F)F)c2)cc1 (centres unmarked) [CMLD007432]	6.3 µM		15.9 µM	
COc1ccc(N2C(=O)c3[nH]nc(CC(C)C)c3C2c2ccncc2Cl)cc1 (centres unmarked) [CMLD011496]	10 µM		20 µM	
COc1ccc(N2C(=O)c3[nH]nc(CC(C)C)c3C2c2cccc(C(F)(F)F)c2)c(OC)c1 (centres unmarked) [CMLD011115]	12.6 µM		20 µM	
CC(C)Cc1n[nH]c2c1C(c1ccc(F)cc1)N(c1ccc(C(=O)O)cc1)C2=O (centres unmarked) [CMLD011031]	> 50 µM		> 50 µM	
COc1ccc(N2C(=O)c3[nH]nc(CC(C)C)c3C2c2ncccc2OC)cc1 (centres unmarked) [CMLD011578]	> 100 µM		20 µM	
CC(C)Cc1n[nH]c2c1C(c1ccccc1Cl)N(c1ccc(F)cc1)C2=O (centres unmarked) [CMLD011078]		4 µM		20 µM
COc1ccc(N2C(=O)c3[nH]nc(CC(C)C)c3C2c2ccc(F)cc2)cn1 (centres unmarked) [BUCMD00808]	10 µM		> 50 µM	
COc1ccccc1N1C(=O)c2[nH]nc(CC(C)C)c2C1C1CCCCC1 (centres unmarked) [CMLD011045]		10 µM		25.1 µM
COc1ccc(N2C(=O)c3[nH]nc(CC(C)C)c3C2c2ccccc2Cl)c(OC)c1 (centres unmarked) [CMLD011103]	10 µM		20 µM	
COc1ccc(OC)c(N2C(=O)c3[nH]nc(CC(C)C)c3C2c2ccc(F)cc2)c1 (centres unmarked) [CMLD011040]	25.1 µM		≥ 50.1 µM	
COc1ccc(N2C(=O)c3[nH]nc(CC(C)C)c3C2c2ccccc2Br)c(OC)c1 (centres unmarked) [CMLD011109]	6.3 µM		15.8 µM	
CC(C)Cc1n[nH]c2c1C(c1cccc(C(F)(F)F)c1)N(c1ccc(N(C)C)cc1)C2=O (centres unmarked) [CMLD010925]	7.9 µM		20 µM	
COc1ccc(N2C(=O)c3[nH]nc(CC(C)C)c3[C@H]2c2ccc(F)cc2C)cc1 [CMLD010950]	6.3 µM		31.6 µM	
CC(C)Cc1n[nH]c2c1C(c1ccccc1Cl)N(CCN1CCCC1)C2=O (centres unmarked) [BUCMD00799]	20 µM		> 50 µM	
COc1ccccc1N1C(=O)c2[nH]nc(CC(C)C)c2C1c1ccc(F)cc1 (centres unmarked) [CMLD011046]	20 µM		> 50 µM	
COc1ccc(N2C(=O)c3[nH]nc(CC(C)C)c3C2c2cccc(C(F)(F)F)c2)cc1F (centres unmarked) [CMLD011106]	6.3 µM		25.1 µM	

Further molecules by falling EC50 [1, 3], results first:

EC50 [1, 3]	EC50 [1, 5]	SMILES	CC50 [2, 4]	CC50 ([2]; host THP-1 cells)
6.3 µM		CC(C)Cc1n[nH]c2c1C(c1ccccc1Cl)N(c1ccc(-n3ccnc3)cc1)C2=O (centres unmarked) [CMLD010998]	≥ 50.1 µM	
6.3 µM		COc1ccc(N2C(=O)c3[nH]nc(CCC=C(C)C)c3C2c2ccc(F)cc2)cc1 (centres unmarked) [CMLD010981]	20 µM	
6.3 µM		CC(C)Cc1n[nH]c2c1C(c1ccc(F)cc1)N(c1ccc(F)cc1)C2=O (centres unmarked) [CMLD011113]	25.1 µM	
5 µM		COc1cccc(N2C(=O)c3[nH]nc(CC(C)C)c3C2c2cccc(C(F)(F)F)c2)c1 (centres unmarked) [CMLD011140]	20 µM	
5 µM		CCC(C)(COC(C)=O)CN1C(=O)c2[nH]nc(CC(C)C)c2C1c1ccc(F)cc1 (centres unmarked) [CMLD011035]	25.1 µM	
5 µM		CC(C)Cc1n[nH]c2c1C(C1CCCCC1)N(c1ccc3c(c1)OCO3)C2=O (centres unmarked) [CMLD011043]	15.8 µM	
5 µM		CCCn1nc(CC(C)C)c2c1C(=O)N(c1ccc(OC)cc1)C2c1ccc(F)cc1 (centres unmarked) [CMLD010982]	25.1 µM	
5 µM		COc1ccc(N2C(=O)c3[nH]nc(CC(C)C)c3C2c2cccc(F)c2)cc1 (centres unmarked) [CMLD010890]	12.6 µM	
5 µM		COc1ccc(N2C(=O)c3[nH]nc(-c4ccc5c(c4)CCC5)c3C2c2ccc(F)cc2)cc1 (centres unmarked) [CMLD010980]	7.9 µM	
4 µM		CC(C)Cc1n[nH]c2c1C(c1ccccc1Br)N(c1ccc(F)cc1)C2=O (centres unmarked) [CMLD011111]	15.8 µM	
4 µM		CC(C)Cc1n[nH]c2c1C(c1ccsc1)N(c1ccc(C(C)(C)C)cc1)C2=O (centres unmarked) [CMLD011135]	> 50 µM	
4 µM		COc1ccc(N2C(=O)c3[nH]nc(CC(C)C)c3C2c2ccc(Cl)cc2)cc1 (centres unmarked) [CMLD011096]	15.9 µM	
4 µM		COc1cc(N2C(=O)c3[nH]nc(CC(C)C)c3C2c2ccc(F)cc2)cc(OC)c1OC (centres unmarked) [CMLD010896]	3.2 µM	
3.2 µM		CC(C)Cc1n[nH]c2c1C(c1ccc(F)cc1)N(c1ccc(OC(F)(F)F)cc1)C2=O (centres unmarked) [CMLD010885]	7.9 µM	
2.5 µM		CC(C)Cc1n[nH]c2c1C(c1cccc(C(F)(F)F)c1)N(c1ccc(F)cc1)C2=O (centres unmarked) [CMLD011119]	25.1 µM	
1.6 µM		CCOc1ccc(N2C(=O)c3[nH]nc(CC(C)C)c3C2c2ccc(F)cc2)cc1 (centres unmarked) [CMLD010900]	20 µM	
1.6 µM		C=CCCc1n[nH]c2c1C(c1ccc(F)cc1)N(c1ccc(OC)cc1)C2=O (centres unmarked) [CMLD011024]	3.2 µM	
0.5 µM		COc1ccc(N2C(=O)c3[nH]nc(CC(C)C)c3[C@@H]2c2ccc(F)cc2C)cc1 [CMLD010949]	39.8 µM	
0.5 µM		C=C(C)CCc1n[nH]c2c1C(c1ccc(F)cc1)N(c1ccc(OC)cc1)C2=O (centres unmarked) [CMLD011025]	1.6 µM	
